Experimental data: ChEMBL document CHEMBL5113429, “Diazepinone HBV capsid assembly modulators” (Bioorg Med Chem Lett, 2022)
≈ marks a conversion by molar mass, not a printed value. Blank lines part the entries; values can stand above or below the compound they belong to.

Key:
[1] = Intrinsic clearance in human liver microsomes; assay type: ADME, Microsome; conditions: read-out: CLH
[2] = Thermodynamic solubility in pH 7 buffer; assay type: physicochemical; conditions: read-out: Therm_solubility
[3] = target: Core antigen (Hepatitis B virus) (UniProt Q03732); test: Ratio of EC50 for modulation of capsid assembly in HBV infected in human HepG2.2.15 cells in presence of 40% normal human serum to EC50 for modulation of capsid assembly in HBV infected in human HepG2.2.15 cells in absence of 40% normal human serum; assay type: cell-based
Chain of Core antigen (Hepatitis B virus) (Q03732 as listed by the source): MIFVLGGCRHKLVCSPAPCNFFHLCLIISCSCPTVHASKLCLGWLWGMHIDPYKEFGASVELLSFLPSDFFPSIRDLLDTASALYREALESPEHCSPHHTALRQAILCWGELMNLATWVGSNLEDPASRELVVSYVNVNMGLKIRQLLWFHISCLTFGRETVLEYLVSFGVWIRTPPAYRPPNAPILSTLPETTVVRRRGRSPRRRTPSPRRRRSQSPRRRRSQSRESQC

[4] = Modulation of capsid assembly in HBV infected in human HepG2.2.15 cells assessed as inhibition of viral DNA replication
[5] = Intrinsic clearance in rat hepatocytes; assay type: ADME, cell-based, Hepatocyte; conditions: read-out: CLH
[6] = Half life in rat at 5 mg/kg, po or 1.25 mg/kg, iv; assay type: ADME, organism-based; conditions: in vivo
[7] = Half life in Beagle dog at 2.5 mg/kg, po or 0.5 mg/kg, iv; assay type: ADME, organism-based, Canis lupus familiaris; conditions: in vivo
[8] = Volume of distribution at steady state in Beagle dog at 2.5 mg/kg, po or 0.5 mg/kg, iv; assay type: ADME, organism-based, Canis lupus familiaris; conditions: in vivo
[9] = Tmax in mouse at 10 mg/kg, po; assay type: ADME, organism-based; conditions: in vivo
[10] = AUC (0 to infinity) in rat at 5 mg/kg, po; assay type: ADME, organism-based; parameters: time infinity, dose 5 mg/kg, route po; conditions: in vivo
[11] = AUC (0 to infinity) in mouse at 10 mg/kg, po; assay type: ADME, organism-based; parameters: time infinity, dose 10 mg/kg, route po; conditions: in vivo
[12] = Intrinsic clearance in human hepatocytes; assay type: ADME, cell-based, Hepatocyte; conditions: read-out: CLH
[13] = Volume of distribution at steady state in rat at 5 mg/kg, po or 1.25 mg/kg, iv; assay type: ADME, organism-based; conditions: in vivo
[14] = Intrinsic clearance in mouse hepatocytes; assay type: ADME, cell-based, Hepatocyte; conditions: read-out: CLH
[15] = AUC (0 to infinity) in Beagle dog at 2.5 mg/kg, po; assay type: ADME, organism-based, Canis lupus familiaris; parameters: time infinity, dose 2.5 mg/kg, route po; conditions: in vivo
[16] = Volume of distribution at steady state in mouse at 10 mg/kg, po or 2.5 mg/kg, iv; assay type: ADME, organism-based; conditions: in vivo
[17] = Intrinsic clearance in dog hepatocytes; assay type: ADME, cell-based, Canis lupus familiaris, Hepatocyte; conditions: read-out: CLH
[18] = Cmax in rat at 5 mg/kg, po; assay type: ADME, organism-based; parameters: dose 5 mg/kg, route po; conditions: in vivo
[19] = Cmax in Beagle dog at 2.5 mg/kg, po; assay type: ADME, organism-based, Canis lupus familiaris; parameters: dose 2.5 mg/kg, route po; conditions: in vivo
[20] = Intrinsic clearance in dog liver microsomes; assay type: ADME, Canis lupus familiaris, Microsome; conditions: read-out: CLH
[21] = Protein binding in human plasma; assay type: ADME, cell-free; conditions: read-out: PPB (converted)
[22] = Half life in mouse at 10 mg/kg, po or 2.5 mg/kg, iv; assay type: ADME, organism-based; conditions: in vivo
[23] = Protein binding in mouse plasma; assay type: ADME, cell-free; conditions: read-out: PPB (converted)
[24] = Oral bioavailability in rat at 5 mg/kg; assay type: ADME, organism-based; conditions: in vivo
[25] = Intrinsic clearance in mouse liver microsomes; assay type: ADME, Microsome; conditions: read-out: CLH
[26] = Protein binding in rat plasma; assay type: ADME, cell-free; conditions: read-out: PPB (converted)
[27] = Lipophilicity, log D of compound; assay type: physicochemical; conditions: octanol/water
[28] = Oral bioavailability in mouse at 10 mg/kg; assay type: ADME, organism-based; conditions: in vivo
[29] = Tmax in rat at 5 mg/kg, po; assay type: ADME, organism-based; conditions: in vivo
[30] = Protein binding in dog plasma; assay type: ADME, cell-free, Canis lupus familiaris; conditions: read-out: PPB (converted)
[31] = Oral bioavailability in Beagle dog at 2.5 mg/kg; assay type: ADME, organism-based, Canis lupus familiaris; conditions: in vivo
[32] = Cmax in mouse at 10 mg/kg, po; assay type: ADME, organism-based; parameters: dose 10 mg/kg, route po; conditions: in vivo
[33] = Intrinsic clearance in rat liver microsomes; assay type: ADME, Microsome; conditions: read-out: CLH
[34] = Tmax in Beagle dog at 2.5 mg/kg, po; assay type: ADME, organism-based, Canis lupus familiaris; conditions: in vivo

Structure (SMILES): C[C@@H]1Cc2nn3c(c2CN1C(=O)Nc1ccc(F)c(C#N)c1)C(=O)N(C)O[C@@H](CF)C3
Ratio EC50 [3]: 2

Structure (SMILES): CN1CC(F)Cn2nc3c(c2C1=O)CN(C(=O)Nc1ccc(F)c(Cl)c1)CC3 (racemic)
CLint scaled [1]: 12 mL/min/kg
solubility thermodynamic [2]: 183 µM (≈ 75 µg/mL)

Structure (SMILES): CN1CC(F)Cn2nc3c(c2C1=O)CN(C(=O)Nc1ccc(F)c(C(F)(F)F)c1)CC3 (racemic)
CLint scaled [1]: 17 mL/min/kg
solubility thermodynamic [2]: 175 µM (≈ 77.6 µg/mL)

Structure (SMILES): CN1OC(CO)Cn2nc3c(c2C1=O)CN(C(=O)Nc1ccc(F)c(Cl)c1)CC3 (racemic)
EC50 [4]: 9 nM
CLint scaled [1]: < 7 mL/min/kg
solubility thermodynamic [2]: 169 µM (≈ 71.6 µg/mL)

Structure (SMILES): C[C@@H]1Cc2nn3c(c2CN1C(=O)Nc1ccc(F)c(C#N)c1)C(=O)N(C)C[C@@H](F)C3
CLint scaled [5]: 57 mL/min/kg
half-life [6]: 1.92 h
half-life [7]: 4.3 h
Vdss [8]: 1 L/kg
Tmax [9]: 0.5 h
AUC(0-inf) [10]: 697 ng·h/mL
AUC(0-inf) [11]: 1930 ng·h/mL
CLint scaled [12]: 7.7 mL/min/kg
Vdss [13]: 2.09 L/kg
CLint scaled [14]: 101 mL/min/kg
CLint scaled [1]: < 6 mL/min/kg
AUC(0-inf) [15]: 7000 ng·h/mL
Vdss [16]: 0.99 L/kg
CLint scaled [17]: < 6.4 mL/min/kg
Cmax [18]: 98 ng/mL
Cmax [19]: 1150 ng/mL
CLint scaled [20]: < 6 mL/min/kg
fraction unbound [21]: 0.19
half-life [22]: 0.51 h
fraction unbound [23]: 0.34
bioavailability [24]: 54%
CLint scaled [25]: 28 mL/min/kg
fraction unbound [26]: 0.38
solubility thermodynamic [2]: 72 µM (≈ 29.8 µg/mL)
logD [27]: 1.95
bioavailability [28]: 44%
Tmax [29]: 1.33 h
fraction unbound [30]: 0.23
bioavailability [31]: 47%
Ratio EC50 [3]: 1.5
Cmax [32]: 1270 ng/mL
CLint scaled [33]: 44 mL/min/kg
Tmax [34]: 2 h

Structure (SMILES): CN1CC(F)Cn2nc3c(c2C1=O)CN(C(=O)Nc1ccnc(Br)c1F)CC3 (racemic)
CLint scaled [1]: 5 mL/min/kg
solubility thermodynamic [2]: 170 µM (≈ 77.4 µg/mL)

Structure (SMILES): CN1CC(N(C)C)Cn2nc3c(c2C1=O)CN(C(=O)Nc1ccc(F)c(Cl)c1)CC3 (racemic)
CLint scaled [1]: 14 mL/min/kg
solubility thermodynamic [2]: 187 µM (≈ 81.3 µg/mL)

Structure (SMILES): CN1CC(OCC(F)F)Cn2nc3c(c2C1=O)CN(C(=O)Nc1ccc(F)c(Cl)c1)CC3 (racemic)
CLint scaled [1]: 5.4 mL/min/kg
solubility thermodynamic [2]: 181 µM (≈ 85.4 µg/mL)

Structure (SMILES): CC1CN(C)C(=O)c2c3c(nn2C1)CCN(C(=O)Nc1ccc(F)c(Cl)c1)C3 (racemic)
CLint scaled [1]: 28 mL/min/kg
solubility thermodynamic [2]: 182 µM (≈ 73.9 µg/mL)

Structure (SMILES): CN1CCC(CO)n2nc3c(c2C1=O)CN(C(=O)Nc1ccc(F)c(Cl)c1)CC3 (racemic)
CLint scaled [1]: 4.7 mL/min/kg
solubility thermodynamic [2]: 195 µM (≈ 82.3 µg/mL)

Structure (SMILES): C[C@@H]1Cc2nn3c(c2CN1C(=O)Nc1ccc(F)c(C#N)c1)C(=O)N(C)C[C@H](F)C3
CLint scaled [1]: < 6 mL/min/kg
CLint scaled [20]: < 8 mL/min/kg
logD [27]: 1.96
CLint scaled [33]: 31 mL/min/kg

Structure (SMILES): CN1CC(C(F)F)Cn2nc3c(c2C1=O)CN(C(=O)Nc1ccc(F)c(Cl)c1)CC3 (racemic)
CLint scaled [1]: 15 mL/min/kg
solubility thermodynamic [2]: 175 µM (≈ 77.3 µg/mL)

Structure (SMILES): CN1CC(F)(F)Cn2nc3c(c2C1=O)CN(C(=O)Nc1ccc(F)c(Cl)c1)CC3
CLint scaled [1]: 8.1 mL/min/kg
solubility thermodynamic [2]: 181 µM (≈ 77.4 µg/mL)

Structure (SMILES): CN1CC(F)Cn2nc3c(c2C1=O)CN(C(=O)Nc1ccc(F)c(Br)c1)CC3 (racemic)
CLint scaled [1]: 22 mL/min/kg
solubility thermodynamic [2]: 191 µM (≈ 86.8 µg/mL)

The next lines start with the values.

CLint scaled [1]: 26 mL/min/kg
solubility thermodynamic [2]: 179 µM (≈ 67.6 µg/mL)
Structure (SMILES): CN1CCn2nc3c(c2C1=O)CN(C(=O)Nc1ccc(F)c(Cl)c1)CC3

CLint scaled [1]: 9 mL/min/kg
solubility thermodynamic [2]: 189 µM (≈ 79.7 µg/mL)
Structure (SMILES): CN1C(=O)c2c3c(nn2CCC1CO)CCN(C(=O)Nc1ccc(F)c(Cl)c1)C3 (racemic)

CLint scaled [1]: 11 mL/min/kg
solubility thermodynamic [2]: 195 µM (≈ 76.4 µg/mL)
Structure (SMILES): CN1CCCn2nc3c(c2C1=O)CN(C(=O)Nc1ccc(F)c(Cl)c1)CC3

CLint scaled [1]: < 5 mL/min/kg
solubility thermodynamic [2]: 191 µM (≈ 80.6 µg/mL)
Structure (SMILES): CN1CC(CO)Cn2nc3c(c2C1=O)CN(C(=O)Nc1ccc(F)c(Cl)c1)CC3 (racemic)

CLint scaled [1]: 16 mL/min/kg
solubility thermodynamic [2]: > 200 µM
Structure (SMILES): CN1CCCCn2nc3c(c2C1=O)CN(C(=O)Nc1ccc(F)c(Cl)c1)CC3

CLint scaled [1]: 5.2 mL/min/kg
solubility thermodynamic [2]: 179 µM (≈ 71.7 µg/mL)
Structure (SMILES): CN1CC(F)Cn2nc3c(c2C1=O)CN(C(=O)Nc1ccc(F)c(C#N)c1)CC3 (racemic)
